Assay results: patent EP4063856A1, “METHODS AND COMPOSITIONS FOR IN VITRO SCREENING OF PROTEASE INHIBITORS” (Universiteit Antwerpen, priority 2021, dated 2022)
Where a name gives a salt, the structure may show the parent alone.

Assays:
[1] = biological target: T1, recombinant TMPRSS2 (rTMPRSS2) (Homo sapiens, UniProt O15393); assay: Inhibitor screening assay with medium containing recombinant TMPRSS2 (trypsin-like activity, Boc-QAR-AMC substrate, fluorescence); type: biochemical; conditions: 15 minutes of incubation at 37°C, 30 µM Boc-QAR-AMC, read-out: Inhibitory effect (%): percentage of inhibited trypsin-like activity
T1 construct: The expression vector, encoding the serine protease domain of TMPRSS2, a His-tag and a secretion signal; His-tag; secretion signal; made in house; host or cells: HEK293T cells, transient transfection; unpurified cell medium used
T1 sequence (O15393 256-492 limits assumed): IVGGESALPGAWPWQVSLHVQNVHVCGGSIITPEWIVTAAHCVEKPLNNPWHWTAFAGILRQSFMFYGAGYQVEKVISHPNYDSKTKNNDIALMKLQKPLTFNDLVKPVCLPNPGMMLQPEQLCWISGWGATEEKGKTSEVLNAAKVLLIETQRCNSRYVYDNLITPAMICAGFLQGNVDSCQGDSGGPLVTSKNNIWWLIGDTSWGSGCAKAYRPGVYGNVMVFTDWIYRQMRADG
Protocol: Cell medium containing the TMPRSS2 serine protease domain was collected 4 days post-transfection and trypsin-like activity was determined as described above.
On the one hand, intact prostasomes and on the other hand, medium containing recombinant TMPRSS2 (rTMPRSS2) were used. The prostasome suspension and rTMPRSS2 were diluted so that less than 10% substrate conversion was observed after 30 minutes of measurement and trypsin-like activities of both preparations were similar (approximately 0.025 U/L). The inhibitors were added to the samples in concentrations of 10 µM, 1 µM and 100 nM, followed by 15 minutes of incubation at 37°C. The substrate, Boc-QAR-AMC (Bachem), was added in a final concentration of 30 µM. This concentration was determined to be the Michaelis-Menten constant for Boc-QAR-AMC and recombinant TMPRSS2. Fluorescence was measured kinetically at 37°C for 20 minutes on a Tecan F200 multi-plate reader at an excitation and emission wavelength of 380 nm and 465 nm, respectively. The inhibitory effect was calculated by dividing the trypsin-like activity without inhibitor by the activity with inhibitor and was expressed as percentage inhibition.

TMPRSS2 in prostasomes = biological target: T2, TMPRSS2 in prostasomes (Homo sapiens, UniProt O15393); assay: Inhibitor screening assay with intact prostasomes (trypsin-like activity, Boc-QAR-AMC substrate, fluorescence); type: biochemical; conditions: 15 minutes of incubation at 37°C, 30 µM Boc-QAR-AMC, read-out: Inhibitory effect (%): percentage of inhibited trypsin-like activity
T2 construct: Prostasomes or extracellular vesicles were isolated from semen samples using ultracentrifugation and size-exclusion chromatography; from tissue; host or cells: prostasomes (extracellular vesicles) from pooled semen samples
T2 sequence (O15393 256-492 limits assumed): as above
T2 sequence (O15393 1-255 limits assumed): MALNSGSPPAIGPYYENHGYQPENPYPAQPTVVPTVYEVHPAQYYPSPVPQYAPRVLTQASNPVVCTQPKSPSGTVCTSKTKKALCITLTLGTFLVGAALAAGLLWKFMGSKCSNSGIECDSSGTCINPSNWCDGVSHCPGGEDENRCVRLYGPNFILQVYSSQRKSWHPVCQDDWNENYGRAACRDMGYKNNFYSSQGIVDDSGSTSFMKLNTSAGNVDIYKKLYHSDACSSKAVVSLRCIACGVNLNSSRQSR
Protocol: Trypsin-like activity in the intact prostasomes was determined using 100 µM Boc-QAR-AMC (Bachem) in 50 mM Tris 120 mM NaCl pH 8,0. Fluorescence was measured kinetically at 37°C for 20 minutes on a Tecan F200 multi-plate reader at an excitation and emission wavelength of 380 nm and 465 nm, respectively.
On the one hand, intact prostasomes and on the other hand, medium containing recombinant TMPRSS2 (rTMPRSS2) were used. The prostasome suspension and rTMPRSS2 were diluted so that less than 10% substrate conversion was observed after 30 minutes of measurement and trypsin-like activities of both preparations were similar (approximately 0.025 U/L). The inhibitors were added to the samples in concentrations of 10 µM, 1 µM and 100 nM, followed by 15 minutes of incubation at 37°C. The substrate, Boc-QAR-AMC (Bachem), was added in a final concentration of 30 µM. […] Fluorescence was measured kinetically at 37°C for 20 minutes on a Tecan F200 multi-plate reader at an excitation and emission wavelength of 380 nm and 465 nm, respectively. The inhibitory effect was calculated by dividing the trypsin-like activity without inhibitor by the activity with inhibitor and was expressed as percentage inhibition.

inhibition at 0.1 µM ([1]; 100 nM inhibitor): 73%
inhibition at 1 µM ([1]; 1 µM inhibitor): 88%
inhibition at 10 µM ([1]; 10 µM inhibitor): 100%
inhibition at 0.1 µM (TMPRSS2 in prostasomes; 100 nM inhibitor): 99%
inhibition at 1 µM (TMPRSS2 in prostasomes; 1 µM inhibitor): 100%
inhibition at 10 µM (TMPRSS2 in prostasomes; 10 µM inhibitor): 100%
SMILES: CN(C)C(=O)COC(=O)Cc1ccc(OC(=O)c2ccc(NC(=N)N)cc2)cc1 [Camostat, camostat mesylate]
